Test results reported in patent publication US20130090355A1, “CHEMICAL AGENTS FOR THE PREVENTION OF INHIBITION OR TUMOR METASTASIS” (ALBERT EINSTEIN COLLEGE OF MEDICINE OF YESHIVA UNIVERSITY, priority 2010, published 2013).
Where “and” joins values, the source holds several entries; their conditions need not be identical. Equal entries are not always repeated. Entries after “also recorded” stand apart in the source; their conditions may differ. Where two headings read alike, the source gives them in different places. One block for each compound: values may come before it.

How the values were obtained:
[1] = biological target: S100A4/myosin-IIA interaction (Homo sapiens, UniProt P26447); assay: Fluorescence polarization assay monitoring the S100A4/myosin-IIA interaction with FITC-MIIA^1908-1923 peptide; type: binding
Excerpt: An agent that prevents or inhibits the interaction between S100A4 and myosin-IIA may be determined by any method known in the art. For example, a fluorescence polarization assay that monitors the S100A4/myosin-IIA interaction using a fluorescein-tagged myosin-IIA peptide that comprises the minimal S100A4 binding site may be used as described in U.S. application Ser. No. 11/989,901, herein included in full.
A fluorescence polarization assay was developed that monitors the S100A4/myosin-IIA interaction using a fluorescein-tagged myosin-IIA peptide that comprises the minimal S100A4 binding site (FITC-MIIA^1908-1923) (21, 24). […] In collaboration with the Rapid Access to NCI Discovery Resources (R•A•N•D) program, the fluorescence polarization assay was used to screen the LOPAC (1280 compounds) and Maybridge (14,320 compounds) chemical libraries to identify compounds that disrupt the S100A4/myosin-IIA interaction.
EC50 values were determined from sixteen concentration titrations.

[2] = tested on: MDA-MB-231 cells; assay: MTT cell proliferation / growth inhibition assay; conditions: for MTT Assay death: MDA-MB-231, 24 hrs
Procedure: However, all compounds were tested in a cell proliferation assay to identify cytotoxic compounds and determine compound concentrations that can be used to examine effects on motility and invasion.
EC50 values were determined from sixteen concentration titrations. Growth inhibition of MDA-MB-231 cells, which express high levels of S100A4, was examined in a 96-well plate MTT assay at eight drug concentrations after treatment for 24 hrs.

[3] = biological target: C3R/C81S/C86S S100A4 (Homo sapiens, UniProt P26447, C3R/C81S/C86S); assay: Myosin-IIA binding to C3R/C81S/C86S S100A4
[4] = biological target: C81S/C86S S100A4 (Homo sapiens, UniProt P26447, C81S/C86S); assay: Mass spectrum of C81S/C86S S100A4 after treatment with compound (covalent modification); conditions: Cys81 and Cys86 substituted with serine
Excerpt: (§1) FIG. 3A-3D. Mass spectrum of wild-type S100A4 (A) and following treatment with NSC 95397 (B). Mass spectrum of C81S/C86S S100A4 (C) and following treatment with NSC 95397 (D).

[5] = biological target: wild-type S100A4 (Homo sapiens, UniProt P26447); assay: Mass spectrum of wild-type S100A4 after treatment with compound (covalent modification)
Excerpt: as §1

[6] = tested on: MDA-MB-231 cells; assay: Boyden chamber assay of serum-stimulated chemotaxis; type: cell-based; conditions: Homo sapiens; MDA-MB-231 chemotaxis towards serum (5% FBS), 24 hr; read-out: EC50 inhibition of serum-stimulated migration
Procedure: FIG. 4. Boyden chamber assay examining the effects of lead compounds on MDA-MB-231 chemotaxis. Cells were serum starved for 5 hrs and plated into the upper chamber of a transwell in serum-free medium. Complete medium (5% FBS) was added to the lower chamber and the cells were allowed to migrate for 24 hr. Cells that penetrated the filter were stained with DAPI and quantified by fluorescence microscopy using 10 fields per filter.
As proof-of-principle that S100A4 inhibitors affect the motile and invasive capabilities of carcinoma cells, cell migration assays examining the ability of NSC 5069 and XAX 00168 to inhibit chemotaxis of MDA-MB-231 cells towards serum in a Boyden chamber assay were initiated (FIG. 4). Both NSC 5069 and XAX 00168 inhibit serum-stimulated migration to varying extents with EC50 values of approximately 40 and 20 μM for NSC 5069 and XAX 00168, respectively.

[7] = read-out: EC50 (inhibition of the S100A4/myosin-IIA interaction)
[8] = Table 1, sixteen concentration titrations, read-out: EC50

S100A4/myosin-IIA interaction, sequence (P26447 whole entry): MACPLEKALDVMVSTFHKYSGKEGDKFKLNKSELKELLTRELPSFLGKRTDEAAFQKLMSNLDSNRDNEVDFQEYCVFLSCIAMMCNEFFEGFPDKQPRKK
C81S/C86S S100A4, sequence (P26447 whole entry C81S/C86S, one chain of several): as the sequence (P26447 whole entry) above, with C81S, C86S counted along it
C3R/C81S/C86S S100A4, sequence (P26447 whole entry C3R/C81S/C86S, one chain of several): as the sequence (P26447 whole entry) above, with C3R, C81S, C86S counted along it
wild-type S100A4, sequence (P26447 whole entry): as the sequence (P26447 whole entry) above

SMILES: CSc1sc(C(=O)NN)cc1-c1nc(C)cs1 [Maybridge KM03663, 5-methylsulfanyl-4-(4-methyl-1,3-thiazol-2-yl)thiophene-2-carbohydrazide]
EC50 [1, 7]: 38 to 46 µM
MTT Assay death ([2]; at 150 μM): 100% death at 150 μM

SMILES: O=C1C(=O)c2cc([N+](=O)[O-])ccc2-c2ccccc21 [NSC5425/ NSC23180, 2-nitrophenanthrene-9,10-dione]
MTT Assay death ([2]; @ 10 μM): 100% death @ 10 μM

SMILES: CSCC[C@H](NC(=O)[C@H](C)NC(=O)[C@H](CC(=O)O)NC(=S)Nc1ccc2c(c1)C(=O)OC21c2ccc(O)cc2Oc2cc(O)ccc21)C(=O)N[C@@H](CC(N)=O)C(=O)N[C@@H](CCCNC(=N)N)C(=O)N[C@@H](CCC(=O)O)C(=O)N[C@H](C(=O)N[C@@H](CO)C(=O)N[C@@H](CO)C(=O)N[C@@H](CC(C)C)C(=O)N[C@@H](CCCCN)C(=O)N[C@@H](CC(N)=O)C(=O)N[C@@H](CCCCN)C(=O)N[C@@H](CC(C)C)C(=O)N[C@@H](CCCNC(=N)N)C(=O)N[C@@H](CCCNC(=N)N)C(=O)O)C(C)C [FITC-MIIA^1908-1923]
myosin-IIA binding [3]: undetectable

SMILES: O=C1C(SCCO)=C(SCCO)C(=O)c2ccccc21 [NSC95397, 2,3-bis(2-hydroxyethylsulfanyl)naphthalene-1,4-dione]
EC50 [1, 7]: 7.6 µM
covalent modification of S100A4 (mass) [4]: prevented modification
covalent modification of S100A4 (mass) [5]: modification of each monomer at two residues
MTT Assay death ([2]; @ 2.5 μM): 100% death @ 2.5 μM

SMILES: O=C(O)CC1OCC=C2CN3CCC45C6=CC(=O)C(=O)C([N+](=O)[O-])=C6NC4C1C2CC35 (stereo not drawn) [NSC5069, Cacotheline]
EC50 [1, 8]: 19 µM
EC50 [1, 7]: 19 µM
EC50 [6]: ~40 µM
MTT Assay toxicity ([2]; MDA-MB-231, eight drug concentrations, 24 hrs): did not exhibit toxicity; also recorded: no toxicity detected

SMILES: O=C1C2=C(SCCS2)C(=O)c2ccccc21 [NSC55480, 2,3-dihydrobenzo[g][1,4]benzodithiine-5,10-dione]
MTT Assay death ([2]; @ 2.5 μM): 100% death @ 2.5 μM

SMILES: CC(=O)c1ccc2c(c1)-c1ccccc1C(=O)C2=O [NSC400689, 3-acetylphenanthrene-9,10-dione]
MTT Assay death ([2]; @ 2.5 μM): 100% death @ 2.5 μM

SMILES: Cc1oc(-c2ccc(Cl)cc2)cc1C(=O)/C(C#N)=C/c1ccccc1 [Maybridge SP00172, 2-{[5-(4-chlorophenyl)-2-methyl-3-furyl]carbonyl}-3-phenylacrylonitrile]
EC50 [1, 7]: 38 to 46 µM
MTT Assay death ([2]; at 50 μM): 100% death at 50 μM

SMILES: O=C1c2ccccc2-c2ccccc2C1(Cl)Cl [NSC6339/ NSC135154, 10,10-dichlorophenanthren-9-one]
MTT Assay death ([2]; @ 2.5 μM): 100% death @ 2.5 μM

EC50 [1, 8]: 4.3 µM
SMILES: [H]/N=C1\C(=O)c2ccccc2-c2ccccc21 [NSC139152, 10-iminophenanthren-9-one]

EC50 [1, 8]: 46 µM
EC50 [1, 7]: 38 to 46 µM and 46 µM
EC50 [6]: ~20 µM
GI50 ([2]; Homo sapiens, MDA-MB-231): 190 µM
IC50 ([2]; Homo sapiens, MDA-MB-231, 24 h, read-out: MTT Assay IC50): 190 µM
SMILES: O=C1NC(=S)S/C1=C\c1cc([N+](=O)[O-])ccc1Sc1ccc(C(F)(F)F)cn1 [Maybridge XAX00168, 5-(5-nitro-2{[5-(trifluoromethyl)-2-pyridyl]thio}benzylidene)-2-thioxo-1,3-thiozolan-4-one]

SMILES: O=C1C(=O)c2cccc([N+](=O)[O-])c2-c2ccccc21 [NSC10204, 4-nitrophenanthrene-9,10-dione]
MTT Assay death ([2]; at 100 μM): 80% death at 100 μM

SMILES: O=C1C(=O)c2cc(Cl)ccc2-c2ccccc21 [NSC102363, 2-chlorophenanthrene-9,10-dione]
MTT Assay death ([2]; @ 10 μM): 100% death @ 10 μM

SMILES: O=C1C(=O)c2ccccc2-c2ccccc21 [NSC10446/ NSC7389, Phenanthrene-9,10-dione]
MTT Assay death ([2]; @ 25 μM): 100% death @ 25 μM

SMILES: O=Nc1c(O)c2ccccc2c2ccc([N+](=O)[O-])cc12 [NSC402968]
EC50 [1, 8]: 17 µM
